Measured values from ChEMBL document CHEMBL3867482, “Design and synthesis of water soluble β-aminosulfone analogues of SCH 900229 as γ-secretase inhibitors” (Bioorg Med Chem Lett, 2016).
In brackets after ≈: the same amount, converted by molar mass.

Legend:
[1] = Selectivity ratio of IC50 for human gamma secretase PS2 (1 to 467 residues) expressed in baculovirus infected sf9 cells co-expressing aph-1a to IC50 for gamma secretase PS1 (1 to 448 residues) expressed in baculovirus infected sf9 cells co-expressing aph-1a
[2] = Kinetic solubility of compound; assay type: physicochemical; details: read-out: Kinetic_solubility
Mus musculus [3] = test: Antialzheimer activity in B6C3F1 mouse assessed as amyloid beta 40 level in plasma at 10 mg/kg, po administered as single dose after 3 hrs relative to control; assay type: functional
[4] = Inhibition of gamma-secretase in HEK293 cell membranes expressing human APP Swedish/London double mutant assessed as reduction in amyloid beta 40 formation after 1 hr by electrochemiluminescence based immunoassay
Mus musculus [5] = test: Antialzheimer activity in B6C3F1 mouse assessed as amyloid beta 40 level in cortex at 10 mg/kg, po administered as single dose after 3 hrs relative to control; assay type: functional
Cytochrome P450 3A4 [6] = target: T1, Cytochrome P450 3A4 (Homo sapiens, UniProt P08684); test: Inhibition of CYP3A4 in human liver microsomes after 30 secs by LC/MS/MS analysis; assay type: ADME
[7] = Ratio of drug level in brain to plasma in mouse at 6 hrs; assay type: ADME, organism-based; details: brain and plasma, read-out: BPR
Cytochrome P450 2C9 = Cytochrome P450 2C9 (Homo sapiens, UniProt P11712); test: Inhibition of CYP2C9 in human liver microsomes after 30 secs by LC/MS/MS analysis; assay type: ADME
[8] = AUC (0 to 6 hrs) in mouse at 10 mg/kg, po by LC/MS/MS analysis; assay type: ADME, organism-based; set-up: time < 6 hr, dose 10 mg/kg, route oral; details: in vivo
[9] = Clearance in monkey hepatocytes assessed per million cells by HPLC/atmospheric pressure chemical ionization/MS analysis; assay type: ADME, cell-based, Macaca mulatta, Hepatocyte; details: rhesus monkey, read-out: CLH
Cytochrome P450 2D6 = Cytochrome P450 2D6 (Homo sapiens, UniProt P10635); test: Inhibition of CYP2D6 in human liver microsomes after 30 secs by LC/MS/MS analysis; assay type: ADME
[10] = Clearance in rat hepatocytes assessed per million cells by HPLC/atmospheric pressure chemical ionization/MS analysis; assay type: ADME, cell-based, Hepatocyte; details: read-out: CLH
Cytochrome P450 3A4 [11] = target: T1, Cytochrome P450 3A4; test: Inhibition of CYP3A4 in human liver microsomes preincubated for 30 mins after 30 secs by LC/MS/MS analysis; assay type: ADME
[12] = Clearance in human hepatocytes assessed per million cells by HPLC/atmospheric pressure chemical ionization/MS analysis; assay type: ADME, cell-based, Hepatocyte; details: read-out: CLH
[13] = Clearance in dog hepatocytes assessed per million cells by HPLC/atmospheric pressure chemical ionization/MS analysis; assay type: ADME, cell-based, Canis lupus familiaris, Hepatocyte; details: read-out: CLH

Chain of Cytochrome P450 2C9 (P11712 whole entry): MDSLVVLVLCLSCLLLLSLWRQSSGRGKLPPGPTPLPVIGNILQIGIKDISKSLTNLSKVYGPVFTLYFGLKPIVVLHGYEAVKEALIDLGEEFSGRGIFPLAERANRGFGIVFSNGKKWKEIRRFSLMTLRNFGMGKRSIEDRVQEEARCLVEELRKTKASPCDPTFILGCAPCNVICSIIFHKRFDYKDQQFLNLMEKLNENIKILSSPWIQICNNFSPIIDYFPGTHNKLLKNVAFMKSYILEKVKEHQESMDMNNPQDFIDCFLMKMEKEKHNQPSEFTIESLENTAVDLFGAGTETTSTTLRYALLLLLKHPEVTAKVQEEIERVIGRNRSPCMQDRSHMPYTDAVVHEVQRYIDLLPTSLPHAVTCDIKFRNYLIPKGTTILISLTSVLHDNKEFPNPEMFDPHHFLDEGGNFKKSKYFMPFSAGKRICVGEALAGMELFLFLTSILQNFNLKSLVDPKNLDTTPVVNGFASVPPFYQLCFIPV
T1 sequence (P08684 whole entry): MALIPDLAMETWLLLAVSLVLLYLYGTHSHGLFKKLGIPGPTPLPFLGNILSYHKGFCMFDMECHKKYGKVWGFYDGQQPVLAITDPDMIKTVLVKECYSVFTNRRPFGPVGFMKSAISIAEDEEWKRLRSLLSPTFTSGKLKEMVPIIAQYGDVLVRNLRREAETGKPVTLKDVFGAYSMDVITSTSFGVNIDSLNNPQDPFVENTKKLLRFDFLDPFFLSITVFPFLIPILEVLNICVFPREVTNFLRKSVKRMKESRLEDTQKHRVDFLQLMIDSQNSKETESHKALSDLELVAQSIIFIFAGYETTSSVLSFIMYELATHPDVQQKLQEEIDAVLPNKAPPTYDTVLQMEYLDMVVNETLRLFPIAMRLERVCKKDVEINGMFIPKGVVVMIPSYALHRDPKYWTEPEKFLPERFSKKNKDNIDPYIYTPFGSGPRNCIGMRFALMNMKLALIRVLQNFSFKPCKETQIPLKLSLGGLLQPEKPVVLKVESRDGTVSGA
Chain of Cytochrome P450 2D6 (P10635 whole entry): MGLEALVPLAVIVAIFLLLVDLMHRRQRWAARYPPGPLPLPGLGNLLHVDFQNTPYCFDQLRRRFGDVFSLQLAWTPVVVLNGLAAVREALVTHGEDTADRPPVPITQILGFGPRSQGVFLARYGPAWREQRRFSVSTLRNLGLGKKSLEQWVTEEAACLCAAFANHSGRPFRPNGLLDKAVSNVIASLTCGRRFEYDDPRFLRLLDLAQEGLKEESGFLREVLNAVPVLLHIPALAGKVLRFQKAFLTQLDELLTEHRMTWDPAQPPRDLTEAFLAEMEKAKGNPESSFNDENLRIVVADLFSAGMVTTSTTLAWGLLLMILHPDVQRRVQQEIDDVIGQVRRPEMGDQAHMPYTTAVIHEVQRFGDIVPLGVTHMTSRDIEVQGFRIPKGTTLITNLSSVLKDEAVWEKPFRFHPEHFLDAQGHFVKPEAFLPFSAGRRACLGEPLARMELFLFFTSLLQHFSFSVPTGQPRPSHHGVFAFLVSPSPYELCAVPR

Q: For `O=S(=O)(CC[C@@H]1OCC[C@@]2(S(=O)(=O)c3ccc(Cl)cc3)c3c(F)ccc(F)c3OC[C@@H]12)C[C@H]1CCCN1`, which Ratio IC50 [1] is on record?
A: 23

Q: With `O=C(O)CS(=O)(=O)CC[C@@H]1OCC[C@@]2(S(=O)(=O)c3ccc(Cl)cc3)c3c(F)ccc(F)c3OC[C@@H]12` as the compound, how does the solubility kinetic [2] read?
A: > 200 µM

Q: And the Activity (Mus musculus [3])?
A: 47%

Q: And the IC50 [4]?
A: 2.7 nM

Q: And the Ratio IC50 [1]?
A: 22

Q: For `O=S(=O)(CC[C@@H]1OCC[C@@]2(S(=O)(=O)c3ccc(Cl)cc3)c3c(F)ccc(F)c3OC[C@@H]12)[C@H]1CCNC1`, which Ratio IC50 [1] is on record?
A: 30

Q: Which solubility kinetic [2] does the source give for `CNCCS(=O)(=O)CC[C@@H]1OCC[C@@]2(S(=O)(=O)c3ccc(Cl)cc3)c3c(F)ccc(F)c3OC[C@@H]12.Cl` here?
A: ≥ 200 µM

Q: Which IC50 [4] does the source give for `O=S(=O)(CC[C@@H]1OCC[C@@]2(S(=O)(=O)c3ccc(Cl)cc3)c3c(F)ccc(F)c3OC[C@@H]12)CCN1CCC1` here?
A: 1.6 nM

Q: And the Ratio IC50 [1]?
A: 17

Q: Which solubility kinetic [2] does the source give for `O=S(=O)(CCO)CC[C@@H]1OCC[C@@]2(S(=O)(=O)c3ccc(Cl)cc3)c3c(F)ccc(F)c3OC[C@@H]12` here?
A: > 200 µM

Q: What about the Activity (Mus musculus [5]) of the same compound?
A: -46%

Q: What about the Activity (Mus musculus [3]) of the same compound?
A: -42%

Q: What about the IC50 [4] of the same compound?
A: 1 nM

Q: Which results are given for `O=S(=O)(CC[C@@H]1OCC[C@@]2(S(=O)(=O)c3ccc(Cl)cc3)c3c(F)ccc(F)c3OC[C@@H]12)C[C@@H]1CCCN1`?
A: IC50 (Cytochrome P450 3A4 [6]): > 20000 nM; Kp at 6 h [7]: 0.6; IC50 (Cytochrome P450 2C9): > 20000 nM; Activity (Mus musculus [5]): -48%; Activity (Mus musculus [3]): -57%; AUC(0-t) at 6 h [8]: 0.674 µM·h; hepatocyte CLint [9]: 26.7 µL/min/1e6 cells; IC50 (Cytochrome P450 2D6): > 20000 nM; hepatocyte CLint [10]: 15.2 µL/min/1e6 cells; IC50 [4]: 0.7 nM; IC50 (Cytochrome P450 3A4 [11]): 1000 nM; hepatocyte CLint [12]: 5.6 µL/min/1e6 cells; hepatocyte CLint [13]: 12.5 µL/min/1e6 cells

Q: Which results are given for `NCCS(=O)(=O)CC[C@@H]1OCC[C@@]2(S(=O)(=O)c3ccc(Cl)cc3)c3c(F)ccc(F)c3OC[C@@H]12`?
A: IC50 (Cytochrome P450 3A4 [6]): 15100 nM; IC50 (Cytochrome P450 2C9): > 20000 nM; Activity (Mus musculus [5]): -52%; Activity (Mus musculus [3]): -54%; AUC(0-t) at 6 h [8]: 0.582 µM·h; hepatocyte CLint [9]: 20.3 µL/min/1e6 cells; IC50 (Cytochrome P450 2D6): > 20000 nM; hepatocyte CLint [10]: 12.1 µL/min/1e6 cells; IC50 [4]: 0.8 nM; IC50 (Cytochrome P450 3A4 [11]): 2800 nM; hepatocyte CLint [12]: 8.5 µL/min/1e6 cells; hepatocyte CLint [13]: 6.4 µL/min/1e6 cells

Q: Which IC50 [4] does the source give for `O=S(=O)(CC[C@@H]1OCC[C@@]2(S(=O)(=O)c3ccc(Cl)cc3)c3c(F)ccc(F)c3OC[C@@H]12)CCN1CCCC1` here?
A: 1.1 nM

Q: And the Ratio IC50 [1]?
A: 13

Q: For `CCNCCS(=O)(=O)CC[C@@H]1OCC[C@@]2(S(=O)(=O)c3ccc(Cl)cc3)c3c(F)ccc(F)c3OC[C@@H]12.Cl`, which solubility kinetic [2] is on record?
A: ≥ 200 µM

Q: Which results are given for `O=S(=O)(CC[C@@H]1OCC[C@@]2(S(=O)(=O)c3ccc(Cl)cc3)c3c(F)ccc(F)c3OC[C@@H]12)CC1=NCCN1`?
A: IC50 (Cytochrome P450 3A4 [6]): 13200 nM; IC50 (Cytochrome P450 2C9): > 20000 nM; solubility kinetic [2]: 20 µM (≈ 11.5 µg/mL); Activity (Mus musculus [3]): -86%; AUC(0-t) at 6 h [8]: 0.057 µM·h; hepatocyte CLint [9]: 32 µL/min/1e6 cells; IC50 (Cytochrome P450 2D6): > 20000 nM; hepatocyte CLint [10]: 25.9 µL/min/1e6 cells; IC50 [4]: 5.9 nM; IC50 (Cytochrome P450 3A4 [11]): 1000 nM; hepatocyte CLint [12]: 13.7 µL/min/1e6 cells; hepatocyte CLint [13]: 20.1 µL/min/1e6 cells

Q: What does the source list for `CN(C)CCS(=O)(=O)CC[C@@H]1OCC[C@@]2(S(=O)(=O)c3ccc(Cl)cc3)c3c(F)ccc(F)c3OC[C@@H]12`?
A: IC50 (Cytochrome P450 3A4 [6]): > 20000 nM; IC50 (Cytochrome P450 2C9): > 20000 nM; solubility kinetic [2]: 50 µM (≈ 28.2 µg/mL); Activity (Mus musculus [5]): -45%; Activity (Mus musculus [3]): -21%; AUC ([8]; 6 h, BLD = below limit of detection): Bld; hepatocyte CLint [9]: 65 µL/min/1e6 cells; IC50 (Cytochrome P450 2D6): > 20000 nM; hepatocyte CLint [10]: 66.7 µL/min/1e6 cells; IC50 [4]: 1.7 nM; Ratio IC50 [1]: 20; IC50 (Cytochrome P450 3A4 [11]): 9000 nM; hepatocyte CLint [12]: 57.2 µL/min/1e6 cells; hepatocyte CLint [13]: 56.5 µL/min/1e6 cells

Q: With `O=S(=O)(CCNC1CCC1)CC[C@@H]1OCC[C@@]2(S(=O)(=O)c3ccc(Cl)cc3)c3c(F)ccc(F)c3OC[C@@H]12` as the compound, how does the IC50 [4] read?
A: 2 nM

Q: For `CC(C)NCCS(=O)(=O)CC[C@@H]1OCC[C@@]2(S(=O)(=O)c3ccc(Cl)cc3)c3c(F)ccc(F)c3OC[C@@H]12`, which IC50 [4] is on record?
A: 0.5 nM

Q: What about the Ratio IC50 [1] of the same compound?
A: 30

Q: Which Ratio IC50 [1] does the source give for `O=S(=O)(CC[C@@H]1OCC[C@@]2(S(=O)(=O)c3ccc(Cl)cc3)c3c(F)ccc(F)c3OC[C@@H]12)[C@@H]1CCNC1` here?
A: 21

Q: Which results are given for `O=S(=O)(CC[C@@H]1OCC[C@@]2(S(=O)(=O)c3ccc(Cl)cc3)c3c(F)ccc(F)c3OC[C@@H]12)CCN1CCOCC1`?
A: IC50 [4]: 3.7 nM; Ratio IC50 [1]: 10

Q: For `Cl.NCCS(=O)(=O)CC[C@@H]1OCC[C@@]2(S(=O)(=O)c3ccc(Cl)cc3)c3c(F)ccc(F)c3OC[C@@H]12`, which solubility kinetic [2] is on record?
A: ≥ 200 µM

Q: Which Activity (Mus musculus [5]) does the source give for `CS(=O)(=O)CC[C@@H]1OCC[C@@]2(S(=O)(=O)c3ccc(Cl)cc3)c3c(F)ccc(F)c3OC[C@@H]12` here?
A: -78%

Q: And the Activity (Mus musculus [3])?
A: -89%

Q: And the IC50 [4]?
A: 1.3 nM

Q: And the Ratio IC50 [1]?
A: 25
